Assay results: US5747536A, “Pharmaceutical composition comprising L-carnitine or derivative thereof and trihydroxy or tetrahydroxystilbene” (Sigma-Tau Industrie Farmaceutiche Riunite S.p.A., priority 1995, dated 1998)

Experiments:
[1] = tested on: platelet-rich plasma (PRP); assay: Platelet aggregation induced by collagen in platelet-rich plasma, photometric (Born); type: cell-based, human (volunteers); settings: collagen 2.5 ng/ml, 10 minutes of incubation
Experimental: Platelet-rich plasma (PRP) was obtained from the blood of volunteers by centrifuging the plasma at 145 x g for 5 min at 22° C. The number of platelets was determined using a CA 580A (Delcon) Platelet Counter. The number of platelets was brought down to a fixed value of […] by adding platelet-poor plasma (PPP). PPP was obtained by centrifuging blood at 1600 x g for 10 min at 22° C.
Platelet aggregation was determined photometrically (Born G.V.R., Nature 194, 927, 1962) using an Elvi 840 aggregometer in plastic test tubes under continual stirring at 1000 rpm. The maximum light transmission (100%) was measured with PPP readings, whereas 0% transmission was measured with PRP readings.
The degree of aggregation of PRP induced by the aggregating agent (collagen at 2.5 to 5 ng/ml) was calculated as a percentage of maximum transmission of light obtained with PPP using […] PRP samples.
Aggregation was measured in basal conditions and after 10 minutes of incubation with L-carnitine, resveratrol, grape extract, and combinations of these preparations.

[2] = tested on: atherosclerotic vascular lesions (aorta); assay: Experimental atherosclerosis induced by atherogenic diet (Malinow method); type: in vivo; settings: atherogenic diet for 6 consecutive weeks; male Wistar rats
formation of nitroxides = settings: Fitzpatrick et al. 1993; cited from earlier work
[3] = Kimura et al. 1983; cited from earlier work
[4] = tested on: production of thromboxanes and leukotrienes; synthesis of eicosanoids; settings: cited from earlier work
cyclo-oxygeNases = settings: Kimura et al. 1985; cited from earlier work
[5] = tested on: platelet aggregation induced by collagen or ADP; settings: Fitzpatrick et al. 1993; cited from earlier work
lipo-oxygenases = settings: Kimura et al. 1985; cited from earlier work

Structure (SMILES)	effect on platelet aggregation (in words) [1]	atherosclerotic vascular lesions (in words) [2]	IC50 ([1]; Homo sapiens, Platelet, 10 min, read-out: ED50, inhibition of the platelet aggregation induced by collagen) [ng/mL]	formation of nitroxides with a vasodilatory action (in words) (formation of nitroxides)	antihyperoxidative ability (in words) [3]	production of thromboxanes and leukotrienes (in words) ([4]; Kimura et al. 1985)	synthesis of eicosanoids (in words) ([4]; background statement)	inhibition of cyclo-oxygenases (in words) (cyclo-oxygeNases)	inhibition of platelet aggregation induced by collagen or ADP (in words) [5]	inhibition of lipo-oxygenases (in words) (lipo-oxygenases)
C[N+](C)(C)C[C@H](O)CC(=O)[O-] [carnitine, L-carnitine]	no significant change	reduced								
Oc1ccc(C=Cc2cc(O)cc(O)c2)cc1 [resveratrol, 3,4',5-trihydroxystilbene]		reduced	3.5	promoting the formation of nitroxides with a vasodilatory action	antihyperoxidative ability	reduction in the production of thromboxanes and leukotrienes	ability to modulate the synthesis of eicosanoids	inhibit	inhibiting platelet aggregation induced by collagen or ADP	inhibit
